Source: US20210115104A1, “AMYLIN ANALOGUES” (Zealand Pharma A/S, priority 2015, published 2021)
*1 amine or outer side, *2 acyl side, *3 side chain or, on linkers, in order; H or OH if unused. Where a SMILES comes first, the peptide text is derived from it. Bridges are numbered along the chain shown (N, C = ends). [ ]: non-standard residue; d: D form. The star is where a group is joined. C20 diacid = O=C(O)CCCCCCCCCCCCCCCCCCC(=O)*; γGlu = O=C(O)[C@H](CCC(=O)[*:2])N[*:1]; Hyp = O=C(O)[C@@H]1C[C@@H](O)CN1; NMeI = CC[C@H](C)[C@H](NC)C(=O)O; Sar = CNCC(=O)O

Legend:
[1] = Assessment of chemical stability (RP-HPLC normalized purity); format: physicochemical; settings: 7 days, 40° C., Table 1
Summary of the method: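 Purity after 7 days at 40° C is expressed relative to T=0 (set to 100) for each pH. Samples at 0.2 mg/ml, pH 4, 6, 7.5 or 9, analyzed by RP-HPLC with UV 220 nm on C8 (ammonium formate) or C18 (TFA) gradients.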

[2] = molecular target: T1, human calcitonin receptor (hCTR2) (Homo sapiens, UniProt P30988); assay: hCTR2 cAMP assay (AlphaScreen) in COS7 cells; format: cell-based; settings: cAMP induction, COS7 cells expressing hCTR2; Table 1; read-out: hCTR2 EC50
T1 construct: expressed in transfected cells
T1 sequence (P30988 25-474): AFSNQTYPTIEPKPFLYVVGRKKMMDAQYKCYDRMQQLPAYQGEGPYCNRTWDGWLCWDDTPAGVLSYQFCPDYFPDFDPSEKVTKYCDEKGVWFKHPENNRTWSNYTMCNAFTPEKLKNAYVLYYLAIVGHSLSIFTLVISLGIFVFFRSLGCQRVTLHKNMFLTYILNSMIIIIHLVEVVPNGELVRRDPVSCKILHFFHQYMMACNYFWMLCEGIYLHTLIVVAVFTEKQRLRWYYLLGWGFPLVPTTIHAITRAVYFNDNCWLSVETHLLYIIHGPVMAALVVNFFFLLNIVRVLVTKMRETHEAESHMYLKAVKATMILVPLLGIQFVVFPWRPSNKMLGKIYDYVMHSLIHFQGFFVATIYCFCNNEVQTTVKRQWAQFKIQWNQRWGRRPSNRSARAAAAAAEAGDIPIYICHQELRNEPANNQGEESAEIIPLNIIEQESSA
Summary of the method: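 cAMP induction, read by AlphaScreen after lysis, gives EC50 values via 4PL curve fitting. Peptides were applied at rising concentrations for 15 min at 37 °C, with IBMX and 0.1% casein in HEPES-buffered Tyrode pH 7.4, to COS7 cells (no endogenous RAMPs) stably expressing human CTR2.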

[3] = Pharmacokinetic (PK) profiling in rats; format: in vivo, rat; parameters: CI/F (apparent clearance values): unit not given here; settings: Sprague Dawley male rats, single sc 30 nmol/kg
Summary of the method: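 Male Sprague Dawley rats received a single sc dose of 30 nmol/kg in mannitol-containing histidine buffer (pH 7.0), with tail-vein sampling before dosing and at 24–168 hours. Plasma was ethanol-precipitated and assayed by LC-MS/MS. Non-compartmental analysis of mean concentrations gave t1/2 as ln(2)/λz and CL/F as dose/AUCinf.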

For `CC[C@H](C)[C@@H](C(=O)N[C@@H](CC(C)C)C(=O)N[C@@H](CO)C(=O)N[C@@H](CO)C(=O)N[C@H](C(=O)N[C@@H](CCC(=O)O)C(=O)N[C@H](C(=O)NCC(=O)N[C@@H](CO)C(=O)NCC(=O)N[C@H](C(=O)N1C[C@H](O)C[C@H]1C(N)=O)[C@@H](C)O)C(C)C)[C@@H](C)O)N(C)C(=O)[C@H](C)NC(=O)CN(C)C(=O)[C@H](Cc1ccccc1)NC(=O)[C@H](CO)NC(=O)[C@H](CO)NC(=O)[C@H](CCCNC(=N)N)NC(=O)[C@H](CCC(N)=O)NC(=O)[C@H](CC(C)C)NC(=O)[C@H](Cc1ccccc1)NC(=O)[C@H](Cc1c[nH]cn1)NC(=O)[C@H](C)NC(=O)[C@H](CC(C)C)NC(=O)[C@H](CCCNC(=N)N)NC(=O)[C@H](CCC(N)=O)NC(=O)[C@@H](NC(=O)[C@H](C)NC(=O)[C@@H]1CSSC[C@H](NC(=O)[C@H](CCCNC(=N)N)NC(=O)CC[C@H](NC(=O)CCCCCCCCCCCCCCCCCCC(=O)O)C(=O)O)C(=O)N[C@@H](CC(N)=O)C(=O)N[C@@H]([C@@H](C)O)C(=O)N[C@@H](C)C(=O)N[C@@H]([C@@H](C)O)C(=O)N1)[C@@H](C)O` [Compound 71, [19CD]-isoGlu-R-C( )-NTAT-C( )-ATQRLAHFLQRSSF-Gly(Me)-A-Ile(Me)-LSSTEVGSGT-Hyp-NH2] ({C20 diacid-γGlu}-RCNTATCATQRLAHFLQRSSF[Sar]A[NMeI]LSSTEVGSGT[Hyp]-NH2; disulfide 2-7), the “Normalized purity after 7 days, 40° C., pH 4” value ([1]; pH 4, 0.2 mg/ml) was “A (A = >90%)”, the “Normalized purity after 7 days, 40° C., pH 6” value ([1]; pH 6, 0.2 mg/ml) was “A (A = >90%)” and the “Normalized purity after 7 days, 40° C., pH 7.5” value ([1]; pH 7.5, 0.2 mg/ml) was “A (A = >90%)”. For the same compound, the “Normalized purity after 7 days, 40° C., pH 9” value ([1]; pH 9, 0.2 mg/ml) was “B (B = 70-90%)”, the EC50 [2] was 0.11 nM and the “CI/F (apparent clearance values)” value [3] was 0.0146.
